In patent US5362634A, “Process for producing A83543 compounds” (DowElanco, priority 1991, dated 1994):
Like-named read-outs stand apart in the source and are kept apart here.

How the values were obtained:
[1] = tested on: neonate CBW (cotton bollworm) larvae; experiment: Surface-treated diet test against neonate CBW larvae; type: in vivo, Heliothis zea
Procedure: (§1) Each test compound was formulated by dissolving the compound in an acetone/alcohol (1:1) mixture containing 23 g of "Toximul R" (sulfonate/nonionic emulsifier blend) and 13 g of "Toximul S" (sulfonate/nonionic emulsifier blend) per liter. These mixtures were then diluted with water to give the indicated concentrations.
(§2) Additional insects were evaluated using similar formulations and evaluation procedures, with the exceptions noted.
(§3) After standard exposure periods, percent mortality was evaluated. The following abbreviations are used:
(§4) ^b Mean of two replicates tested
^d Diet is surface treated with A83543A, allowed to dry and infested

[2] = tested on: CBW (cotton bollworm) ova; experiment: Topical treatment of CBW eggs (ova); type: in vivo, Heliothis zea; conditions: 144 h, 6 days
Procedure: as §1, §2, §3, §4
^e Eggs topically treated with A83543A and held until control eggs

CA (cotton aphid) = experiment: Greenhouse test against CA; type: in vivo; conditions: Aphis gossypii, squash
Procedure: as §1
Two-spotted spider mites (Tetranychus urticae Koch) and cotton or melon aphids (Aphis gossypii Glover) were introduced on squash cotyledons and allowed to establish on both leaf surfaces. Other plants in the same treatment pot were left uninfested. The leaves were then sprayed with 5 mL of test solution using a DeVilbiss atomizing sprayer at 10 psi. Both surfaces of the leaves were covered until runoff and then allowed to dry for one hour. Two uninfested leaves were then excised and placed into a Petri dish containing Southern armyworm (Spodoptera eridania Cramer).
(§5) After standard exposure periods, percent mortality was evaluated.

CLH (corn leafhopper) = experiment: Greenhouse test against CLH; type: in vivo, Dalbulus maidis
Procedure: as §1, §2, §5

imported cabbage worm = experiment: Field trial, imported cabbage worm on sprouting broccoli; type: in vivo
Procedure: A83543A was evaluated in field trials.

adult stable fly (ASF) = experiment: In vitro efficacy, exposure of ASF to chemically added serum samples; conditions: Stomoxys calcitrans, read-out: Percent insect mortality
Description: (§6) ^1 Percent insect mortality following 24 to 48 hrs. in vitro exposure
(§7) to chemically added serum samples

blow fly larvae (LBF) [3] = experiment: In vitro efficacy, exposure of LBF to chemically added serum samples
Description: as §6, §7

blow fly larvae (LBF) [4] = experiment: Sheep systemic test, blow fly larvae; type: in vivo
Procedure: (§8) Blood is drawn from the guinea pigs at 30 minutes except as noted, and the samples of blood are centrifuged. Dental wicks are saturated with the blood serum, and then exposed in Petri dishes to adult stable flies; blow fly larvae are exposed in test tubes. After 24 and 48 hours, the insects are examined, and the number of dead are counted. The results of the tests are recorded as the percent of the insects which are killed.
Tests are carried out in sheep using the test method described supra in the Guinea Pig Test description. Test compound is administered by intraperitoneal or intravenous injection or intraruminally; blood samples are drawn at 24 hours in these tests.

adult stable fly = experiment: Insecticidal assay in blood of sheep challenged with Haemonchus contortus, adult stable fly; type: in vivo; design: mortality: dose or concentration left out as unconfirmed; conditions: Stomoxys calcitrans, read-out: Percent Insecticide Mortality; for mortality at 1 mg/kg: iv, 1 × 1 mg/kg IV
Procedure: as §8
Tests are carried out in sheep using the test method described supra in the Guinea Pig Test description. […]
^b Amount (mg/kg) times number of doses administered
^c Times postadministration at which blood is drawn

[5] = 0 h, Day 0, A, 24-hour exposure
[6] = 0 h, Day 0, A, 48-hour exposure
[7] = 24 h, Day 1, A, 24-hour exposure
[8] = 24 h, Day 1, A, 48-hour exposure
[9] = 48 h, Day 2, A, 24-hour exposure
[10] = 72 h, Day 3, A, 24-hour exposure
[11] = 72 h, Day 3, A, 48-hour exposure
[12] = 120 h, Day 5, A, 48-hour exposure

## CC[C@H]1CCC[C@H](O[C@H]2CC[C@H](N(C)C)[C@@H](C)O2)[C@@H](C)C(=O)C2=C[C@@H]3[C@@H](C=C[C@@H]4C[C@@H](O[C@@H]5O[C@@H](C)[C@H](OC)[C@@H](OC)[C@H]5OC)C[C@@H]34)[C@@H]2CC(=O)O1 [A83543A]
[1]; 72 h, 3 days, 0.50 ppm
  inhibition at 0.5 ppm: 15%
[1]; 72 h, 3 days
  inhibition at 1 ppm: 45%
  inhibition at 5 ppm: 100%
  inhibition at 10 ppm: 100%
  inhibition at 50 ppm: 100%
[1]; 96 h, 4 days
  inhibition at 1 ppm: 30%
  inhibition at 5 ppm: 100%
  inhibition at 10 ppm: 100%
  inhibition at 50 ppm: 100%
[1]; 96 h, 4 days, 100.00 ppm
  inhibition at 100 ppm: 100%
[2]; 10.00 ppm
  inhibition at 10 ppm: 0%
[2]; 50.00 ppm
  inhibition at 50 ppm: 0%
[2]; 100.00 ppm
  inhibition at 100 ppm: 30%
CA (cotton aphid); 25 ppm, second series
  inhibition at 25 ppm: 0%
CA (cotton aphid); first series
  inhibition at 50 ppm: 0%
  inhibition at 100 ppm: 0%
CA (cotton aphid); second series
  inhibition at 50 ppm: 40%
  inhibition at 100 ppm: 80%
CLH (corn leafhopper); 50 ppm
  inhibition at 50 ppm: 0%
CLH (corn leafhopper); 100 ppm
  inhibition at 100 ppm: 30%
CLH (corn leafhopper); 200 ppm
  inhibition at 200 ppm: 90%
Imported cabbage worm
  activity in field trials: showed activity
Adult stable fly (ASF); 24 hr
  mortality at 0.312 ppm: 0%
  mortality at 0.625 ppm: 0%
  mortality at 1.25 ppm: 20%
  mortality at 2.5 ppm: 30%
  mortality at 5 ppm: 50%
  mortality at 10 ppm: 80%
Adult stable fly (ASF); 48 hr
  mortality at 0.312 ppm: 50%
  mortality at 0.625 ppm: 70%
  mortality at 1.25 ppm: 100%
  mortality at 2.5 ppm: 100%
  mortality at 5 ppm: 100%
  mortality at 10 ppm: 100%
Blow fly larvae (LBF) [3]; 0.312 ppm, 24 hr
  Percent insect mortality: 25%
Blow fly larvae (LBF) [3]; 0.312 ppm, 48 hr
  Percent insect mortality: 50%
Blow fly larvae (LBF) [3]; 0.625 ppm, 24 hr
  Percent insect mortality: 60%
Blow fly larvae (LBF) [3]; 0.625 ppm, 48 hr
  Percent insect mortality: 90%
Blow fly larvae (LBF) [3]; 1.25 ppm, 24 hr
  Percent insect mortality: 100%
Blow fly larvae (LBF) [3]; 1.25 ppm, 48 hr
  Percent insect mortality: 100%
Blow fly larvae (LBF) [3]; 2.5 ppm, 24 hr
  Percent insect mortality: 100%
Blow fly larvae (LBF) [3]; 2.5 ppm, 48 hr
  Percent insect mortality: 100%
Blow fly larvae (LBF) [3]; 5 ppm, 24 hr
  Percent insect mortality: 100%
Blow fly larvae (LBF) [3]; 5 ppm, 48 hr
  Percent insect mortality: 100%
Blow fly larvae (LBF) [3]; 10 ppm, 24 hr
  Percent insect mortality: 100%
Blow fly larvae (LBF) [3]; 10 ppm, 48 hr
  Percent insect mortality: 100%
Blow fly larvae (LBF) [4]; 1.0 mg/kg IV
  LBF activity (% mortality): 25%
Blow fly larvae (LBF) [4]; 10 mg/kg IP, 1440 min
  LBF activity (% mortality): 0%
Blow fly larvae (LBF) [4]; 10 mg/kg IR, 1440 min
  LBF activity (% mortality): 0%
Blow fly larvae (LBF) [4]; 30 mg/kg IP, 1440 min
  LBF activity (% mortality): 80%
Blow fly larvae (LBF) [4]; 30 mg/kg IR, 1440 min
  LBF activity (% mortality): 100%
Blow fly larvae (LBF) [4]; 50 mg/kg IP, 1440 min
  LBF activity (% mortality): 20%
Blow fly larvae (LBF) [4]; 50 mg/kg IR, 1440 min
  LBF activity (% mortality): 100%
Blow fly larvae (LBF) [4]; 2 × 25 mg/kg IR, 1440 min
  LBF activity (% mortality): 100%
Adult stable fly; [5]
  mortality: 0%
  mortality at 1 mg/kg: 0%
Adult stable fly; [6]
  mortality: 0%
  mortality at 1 mg/kg: 0%
Adult stable fly; 5 h, A, 24-hour exposure
  mortality: 10%
Adult stable fly; 24 h, 35 min, A, 24-hour exposure
  mortality: 10%
Adult stable fly; 24 h, 5 hr, A, 24-hour exposure
  mortality: 10%
Adult stable fly; 24 h, Day 0, A, 24-hour exposure
  mortality: 0%
Adult stable fly; [7]
  mortality: 10%
  mortality at 50 mg/kg: 0%
  mortality at 1 mg/kg: 0%
Adult stable fly; [8]
  mortality: 90%
  mortality at 50 mg/kg: 60%
  mortality at 1 mg/kg: 0%
Adult stable fly; 48 h, 25 × 2 mg/kg IR, Day 2, A, 24-hour exposure
  mortality at 2 mg/kg: 20%
Adult stable fly; [9]
  mortality: 20%
  mortality at 1 mg/kg: 0%
Adult stable fly; [10]
  mortality: 0%
  mortality at 1 mg/kg: 0%
Adult stable fly; [11]
  mortality: 70%
  mortality at 1 mg/kg: 0%
Adult stable fly; [12]
  mortality: 30%
  mortality at 1 mg/kg: 0%
Adult stable fly; ip, 0 h, Day 0, A, 48-hour exposure
  mortality at 50 mg/kg: 20%
Adult stable fly; ip, 35 min, A, 48-hour exposure
  mortality at 50 mg/kg: 0%
Adult stable fly; ip, 5 h, A, 48-hour exposure
  mortality at 50 mg/kg: 10%
Adult stable fly; ip, 24 h, 35 min, A, 24-hour exposure
  mortality at 50 mg/kg: 0%
Adult stable fly; ip, 24 h, 5 hr, A, 24-hour exposure
  mortality at 50 mg/kg: 0%
Adult stable fly; ip, 24 h, Day 0, A, 24-hour exposure
  mortality at 50 mg/kg: 0%
Adult stable fly; ip, 24 h, Day 1, A, 24-hour exposure
  mortality at 50 mg/kg: 0%
Adult stable fly; ip, 24 h, Day 1, A, 48-hour exposure
  mortality at 50 mg/kg: 0%
Adult stable fly; ip, 24 h, Day 2, A, 24-hour exposure
  mortality at 50 mg/kg: 10%
Adult stable fly; ip, 24 h, Day 3, A, 24-hour exposure
  mortality at 50 mg/kg: 0%
Adult stable fly; ip, 24 h, Day 4, A, 24-hour exposure
  mortality at 50 mg/kg: 10%
Adult stable fly; ip, 24 h, Day 5, A, 24-hour exposure
  mortality at 50 mg/kg: 0%
Adult stable fly; ip, 48 h, Day 2, A, 48-hour exposure
  mortality at 50 mg/kg: 30%
Adult stable fly; ip, 72 h, Day 3, A, 48-hour exposure
  mortality at 50 mg/kg: 10%
Adult stable fly; ip, 96 h, Day 4, A, 48-hour exposure
  mortality at 50 mg/kg: 20%
Adult stable fly; ip, 120 h, Day 5, A, 48-hour exposure
  mortality at 50 mg/kg: 0%
Adult stable fly; 35 min, 35 min, A, 24-hour exposure
  mortality at 1 mg/kg: 10%
Adult stable fly; 35 min, 35 min, A, 48-hour exposure
  mortality at 1 mg/kg: 10%
Adult stable fly; 5 h, 5 hr, A, 24-hour exposure
  mortality at 1 mg/kg: 0%
Adult stable fly; 5 h, 5 hr, A, 48-hour exposure
  mortality at 1 mg/kg: 20%
Adult stable fly; 48 h, Day 2, A, 48-hour exposure
  mortality at 1 mg/kg: 0%
Adult stable fly; 96 h, Day 4, A, 24-hour exposure
  mortality at 1 mg/kg: 0%
Adult stable fly; 96 h, Day 4, A, 48-hour exposure
  mortality at 1 mg/kg: 0%
Adult stable fly; 120 h, Day 5, A, 24-hour exposure
  mortality at 1 mg/kg: 0%
